Here are results for one molecule from patent US20120225862A1, “HETEROARYL BENZAMIDES, COMPOSITIONS AND METHODS OF USE” (AUCKLAND UNIVSERVICES LIMITED, priority 2009, published 2012).

In one assay the target is T1, JAK2 (Homo sapiens, UniProt O60674).
T1 construct: purchased Millipore (KinaseProfiler service)
Put plainly: In vitro kinase activity (Millipore KinaseProfiler): JAK2. Particulars: no head or unit printed. The class given is biochemical. As for the experimental part:
(§1) All cells were grown in DMEM+10% FCS. ACHN and ACHN shVHL were a kind gift from George V. Thomas (UCLA). HIF overexpressing clones were described previously. Transfection of RNA oligos were performed with DnarmaFECT Reagent 1 (Dharmcon), according to manufacturer's directions. ON-TARGETplus SMART pools against HIF-1β/ARNT were purchased from Dharmacon. Glut1 was detected with anti-GLUT1 antibody from NeoMarkers/LabVision/Fisher. Pyruvate/lactate levels and hexokinase activity were both measured by fluorometric assay (BioVision and Sigma-Aldrich, respectively). ATP levels were measured by bioluminescence assay (ATP Determination Kit from Molecular Probes/Invitrogen). In vitro kinase activities were performed by Millipore KinaseProfiler. Affi-Gel 10 (BioRad) activated affinity media was coupled to analogs to generate immobilized affinity linkers.
(§2) We next wanted to investigate the differential glucose uptake between RCCs with and without VHL treated with compound 47 that subsequently lead to the selective death of VHL-deficient cells. We first examined the message levels of the two main glucose transporters, GLUT1 and GLUT2 by quantitative real-time PCR. GLUT1 is an inducible, high-affinity glucose transporter, while GLUT2 is the glucose transporter responsible for basal glucose uptake. […] Cells deficient in VHL had very low levels of GLUT2 that could barely be detected (FIG. 3J). […]

In a further assay the target is T2, TrkA (Homo sapiens, UniProt P04629).
T2 construct: purchased Millipore (KinaseProfiler service)
Description: In vitro kinase activity (Millipore KinaseProfiler): TrkA. The class given is biochemical. Particulars: no head or unit printed. The protocol:
as §1, §2

The next assay deals with T3, ROCK-I (Homo sapiens, UniProt Q13464).
T3 construct: purchased Millipore (KinaseProfiler service)
T3 sequence (Q13464 whole entry, species assumed): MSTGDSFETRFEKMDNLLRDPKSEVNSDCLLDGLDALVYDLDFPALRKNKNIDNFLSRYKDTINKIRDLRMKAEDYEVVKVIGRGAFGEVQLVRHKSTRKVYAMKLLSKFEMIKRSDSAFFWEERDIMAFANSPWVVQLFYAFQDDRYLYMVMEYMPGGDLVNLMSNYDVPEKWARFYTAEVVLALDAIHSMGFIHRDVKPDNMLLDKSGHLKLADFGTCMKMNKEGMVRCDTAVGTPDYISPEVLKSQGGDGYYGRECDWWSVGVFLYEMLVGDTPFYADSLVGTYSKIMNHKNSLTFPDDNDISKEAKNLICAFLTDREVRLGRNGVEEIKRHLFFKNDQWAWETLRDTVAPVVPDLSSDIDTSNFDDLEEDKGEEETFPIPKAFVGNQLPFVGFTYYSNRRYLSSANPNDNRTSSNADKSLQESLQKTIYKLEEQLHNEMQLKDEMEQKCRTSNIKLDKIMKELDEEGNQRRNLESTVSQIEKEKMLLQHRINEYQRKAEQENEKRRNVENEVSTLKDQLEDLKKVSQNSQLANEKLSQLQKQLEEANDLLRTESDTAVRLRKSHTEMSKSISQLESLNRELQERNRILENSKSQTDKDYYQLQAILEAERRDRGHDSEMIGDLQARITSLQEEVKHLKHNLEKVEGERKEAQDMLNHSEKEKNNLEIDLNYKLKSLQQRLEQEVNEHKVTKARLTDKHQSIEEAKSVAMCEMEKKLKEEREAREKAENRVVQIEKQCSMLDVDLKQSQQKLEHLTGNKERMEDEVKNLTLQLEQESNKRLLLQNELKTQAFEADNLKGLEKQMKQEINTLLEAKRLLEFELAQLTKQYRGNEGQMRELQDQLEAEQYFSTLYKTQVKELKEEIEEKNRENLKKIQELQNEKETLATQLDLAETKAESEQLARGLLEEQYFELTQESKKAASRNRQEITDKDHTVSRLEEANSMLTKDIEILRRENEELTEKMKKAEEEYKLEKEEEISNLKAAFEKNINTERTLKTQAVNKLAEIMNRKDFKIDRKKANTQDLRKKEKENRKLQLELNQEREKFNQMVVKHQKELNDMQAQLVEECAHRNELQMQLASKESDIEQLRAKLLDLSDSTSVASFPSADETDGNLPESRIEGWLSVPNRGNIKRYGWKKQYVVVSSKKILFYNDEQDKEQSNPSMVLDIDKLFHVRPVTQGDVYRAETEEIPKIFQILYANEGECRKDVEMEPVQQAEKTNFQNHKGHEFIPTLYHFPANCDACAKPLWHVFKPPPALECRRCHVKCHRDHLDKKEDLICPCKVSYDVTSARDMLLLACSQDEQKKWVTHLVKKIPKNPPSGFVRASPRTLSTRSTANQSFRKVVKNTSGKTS
Description: In vitro kinase activity (Millipore KinaseProfiler): ROCK-I. In kind it is biochemical. Particulars: no head or unit printed. As for the experimental part: as §1, §2

Another assay has as its system hexokinase. Put plainly: Hexokinase activity in whole cell lysates, RCC4. In kind it is cell-based, human. Particulars: 5 μM. The protocol:
as §1
We then examined whether this decrease in glycolysis in response to compound 47 was due to a decrease in glucose uptake or whether compound 47 inhibited a particular glycolytic enzyme. To test this, we measured glucose uptake using 2-deoxy-D-[^3H] glucose, a non-hydrolyzable, radioactive glucose analog, following two days of treatment with compound 47. […] RCC4/VHL cells had lower baseline levels of glucose uptake compared to RCC4 cells and were unaffected by treatment with compound 47. […]

The subject of a further assay is PI3K. Description: In vitro kinase activity (Millipore KinaseProfiler): PI3K. The class given is biochemical. Particulars: no head or unit printed. The protocol: as §1, §2
The target in a further assay is T4, IR (Homo sapiens, UniProt P06213).
T4 construct: purchased Millipore (KinaseProfiler service)
T4 sequence (P06213 28-1382): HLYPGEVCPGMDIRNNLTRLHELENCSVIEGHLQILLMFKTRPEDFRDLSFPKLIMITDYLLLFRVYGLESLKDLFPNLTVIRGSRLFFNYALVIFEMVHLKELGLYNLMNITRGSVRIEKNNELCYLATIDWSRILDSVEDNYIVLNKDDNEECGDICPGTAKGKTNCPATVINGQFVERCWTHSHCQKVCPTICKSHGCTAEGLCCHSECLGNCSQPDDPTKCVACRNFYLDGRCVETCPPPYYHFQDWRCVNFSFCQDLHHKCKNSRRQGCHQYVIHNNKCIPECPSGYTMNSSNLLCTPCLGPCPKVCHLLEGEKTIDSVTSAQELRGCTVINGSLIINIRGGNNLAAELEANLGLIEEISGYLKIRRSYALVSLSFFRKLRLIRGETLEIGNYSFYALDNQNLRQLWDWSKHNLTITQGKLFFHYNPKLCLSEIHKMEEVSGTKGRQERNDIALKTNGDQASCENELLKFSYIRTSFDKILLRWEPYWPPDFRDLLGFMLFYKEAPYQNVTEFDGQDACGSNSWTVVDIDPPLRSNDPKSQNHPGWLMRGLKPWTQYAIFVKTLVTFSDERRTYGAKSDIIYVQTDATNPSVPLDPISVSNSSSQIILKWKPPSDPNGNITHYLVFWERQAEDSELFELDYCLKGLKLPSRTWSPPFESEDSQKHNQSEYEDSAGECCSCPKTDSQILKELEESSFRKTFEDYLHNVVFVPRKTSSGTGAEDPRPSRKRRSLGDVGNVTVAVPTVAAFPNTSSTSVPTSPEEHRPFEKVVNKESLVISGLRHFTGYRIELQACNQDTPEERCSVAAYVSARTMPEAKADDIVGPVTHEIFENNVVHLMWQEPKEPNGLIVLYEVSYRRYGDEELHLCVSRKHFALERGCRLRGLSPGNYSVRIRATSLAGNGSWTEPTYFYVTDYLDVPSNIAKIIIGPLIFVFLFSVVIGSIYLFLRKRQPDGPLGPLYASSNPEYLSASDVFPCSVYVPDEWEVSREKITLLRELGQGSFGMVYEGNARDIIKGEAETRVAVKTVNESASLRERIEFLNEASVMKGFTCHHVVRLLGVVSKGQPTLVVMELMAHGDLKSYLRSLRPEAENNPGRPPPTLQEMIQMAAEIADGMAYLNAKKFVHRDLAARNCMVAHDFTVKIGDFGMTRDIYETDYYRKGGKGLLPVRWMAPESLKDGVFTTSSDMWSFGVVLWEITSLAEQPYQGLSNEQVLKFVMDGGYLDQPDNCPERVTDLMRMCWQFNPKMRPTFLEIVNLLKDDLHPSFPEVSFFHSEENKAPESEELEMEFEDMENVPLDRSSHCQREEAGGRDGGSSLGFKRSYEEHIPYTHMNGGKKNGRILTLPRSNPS
Put plainly: In vitro kinase activity (Millipore KinaseProfiler): IR. The class given is biochemical. Particulars: no head or unit printed. As for the experimental part: as §1, §2

For another assay, the target named is T5, cKit(D816H) (Homo sapiens, UniProt P10721, D816H).
T5 construct: purchased Millipore (KinaseProfiler service)
Description: In vitro kinase activity (Millipore KinaseProfiler): cKit(D816H). In kind it is biochemical. The settings on record: no head or unit printed. The protocol:
as §1, §2

In the next assay the target is T6, Axl (Homo sapiens, UniProt P30530).
T6 construct: purchased Millipore (KinaseProfiler service)
T6 sequence (P30530 26-894, species assumed): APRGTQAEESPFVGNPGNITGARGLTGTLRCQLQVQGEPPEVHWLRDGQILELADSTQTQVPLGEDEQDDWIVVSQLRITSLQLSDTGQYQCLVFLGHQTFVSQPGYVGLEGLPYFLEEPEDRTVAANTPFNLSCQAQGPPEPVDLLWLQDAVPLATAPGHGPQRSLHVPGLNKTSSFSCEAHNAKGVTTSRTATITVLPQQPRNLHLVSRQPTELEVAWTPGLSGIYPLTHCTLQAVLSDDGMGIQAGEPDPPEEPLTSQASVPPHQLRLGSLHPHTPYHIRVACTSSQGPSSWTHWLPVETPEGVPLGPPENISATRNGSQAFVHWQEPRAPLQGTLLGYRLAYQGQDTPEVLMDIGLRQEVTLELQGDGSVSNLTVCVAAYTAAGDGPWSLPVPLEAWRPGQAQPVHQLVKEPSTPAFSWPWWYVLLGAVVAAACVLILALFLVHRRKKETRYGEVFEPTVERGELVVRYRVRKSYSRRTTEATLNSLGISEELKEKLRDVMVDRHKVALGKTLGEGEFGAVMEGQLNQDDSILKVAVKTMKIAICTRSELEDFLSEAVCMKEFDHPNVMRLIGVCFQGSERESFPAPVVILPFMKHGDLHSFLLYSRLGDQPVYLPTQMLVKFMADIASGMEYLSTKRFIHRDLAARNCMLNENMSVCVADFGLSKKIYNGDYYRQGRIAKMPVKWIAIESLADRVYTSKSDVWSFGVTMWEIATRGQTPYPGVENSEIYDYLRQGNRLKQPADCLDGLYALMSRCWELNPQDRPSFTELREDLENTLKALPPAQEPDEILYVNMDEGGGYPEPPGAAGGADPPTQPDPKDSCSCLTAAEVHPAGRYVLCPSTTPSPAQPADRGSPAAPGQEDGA
Put plainly: In vitro kinase activity (Millipore KinaseProfiler): Axl. The class given is biochemical. Particulars: no head or unit printed. As for the experimental part:
as §1, §2

The next assay concerns RCC4 and RCC4/VHL cells. Put plainly: Apoptosis (DAPI nuclear condensation, Annexin V / propidium iodide FACS). In kind it is cell-based, human. As for the experimental part: (A) Clonogenic survival of RCC4 and RCC4/VHL treated with […] (5 μM)(*p<0.05). All error bars represent the standard error of the mean. […] RCC4 and RCC4/VHL cells were treated with increasing concentrations of compound 47 (1.25, 2.5 and 5 μM), a negative control (DMSO) and a positive control (4-(pyridin-4-yl)-N-(m-tolyl)thiazol-2-amine). Cells were lysed and probed for LC3, a marker of autophagy, or α-tubulin (loading control). […] RCC4 and RCC4/VHL cells were treated with vehicle, increasing concentrations of compound 47, and camptothecin. Cells were stained with DAPI and nuclear condensation was examined by fluorescence microscopy. (D) RCC4 cells were treated with compound 47 (5 μM) for the indicated time and stained with Annexin V and propidium iodide and subjected to FACS analysis. […] RCC4 and RCC4/VHL cells were subjected to increasing concentrations of compound 47 (1.25, 2.5, and 5 μM), a negative control (DMSO), and a positive control (doxorubicin). Cells were lysed and subjected to Western blot with the indicated antibodies.
However, RCC cells without VHL undergo a necrotic cell death in response to compound 47 as measured by the ability of the cells to exclude trypan blue, an indicator of cell membrane integrity.

A further assay addresses T7, CaMKI (Homo sapiens, UniProt Q14012).
T7 construct: purchased Millipore (KinaseProfiler service)
Put plainly: In vitro kinase activity (Millipore KinaseProfiler): CaMKI. In kind it is biochemical. Particulars: no head or unit printed. The protocol: as §1, §2

The target in another assay is T8, CK1γ1 (Homo sapiens, UniProt Q9HCP0).
T8 construct: purchased Millipore (KinaseProfiler service)
T8 sequence (Q9HCP0 whole entry): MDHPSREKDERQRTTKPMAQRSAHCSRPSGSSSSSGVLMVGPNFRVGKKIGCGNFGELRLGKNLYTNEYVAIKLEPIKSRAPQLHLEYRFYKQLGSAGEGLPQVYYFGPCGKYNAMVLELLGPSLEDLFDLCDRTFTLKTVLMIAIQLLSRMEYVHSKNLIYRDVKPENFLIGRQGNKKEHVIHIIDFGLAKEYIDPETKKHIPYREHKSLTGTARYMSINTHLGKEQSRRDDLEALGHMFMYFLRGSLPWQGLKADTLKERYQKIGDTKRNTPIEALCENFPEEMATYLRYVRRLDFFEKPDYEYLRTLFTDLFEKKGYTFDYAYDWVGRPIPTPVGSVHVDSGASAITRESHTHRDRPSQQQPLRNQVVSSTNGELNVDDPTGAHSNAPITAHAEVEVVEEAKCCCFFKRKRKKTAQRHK
Description: In vitro kinase activity (Millipore KinaseProfiler): CK1γ1. The class given is biochemical. The settings on record: no head or unit printed. The protocol: as §1, §2

The next assay has as its target T9, c-RAF (Homo sapiens, UniProt P04049).
T9 construct: purchased Millipore (KinaseProfiler service)
Put plainly: In vitro kinase activity (Millipore KinaseProfiler): c-RAF. In kind it is biochemical. Particulars: no head or unit printed. The protocol: as §1, §2

T9 sequence (P04049 whole entry, species assumed): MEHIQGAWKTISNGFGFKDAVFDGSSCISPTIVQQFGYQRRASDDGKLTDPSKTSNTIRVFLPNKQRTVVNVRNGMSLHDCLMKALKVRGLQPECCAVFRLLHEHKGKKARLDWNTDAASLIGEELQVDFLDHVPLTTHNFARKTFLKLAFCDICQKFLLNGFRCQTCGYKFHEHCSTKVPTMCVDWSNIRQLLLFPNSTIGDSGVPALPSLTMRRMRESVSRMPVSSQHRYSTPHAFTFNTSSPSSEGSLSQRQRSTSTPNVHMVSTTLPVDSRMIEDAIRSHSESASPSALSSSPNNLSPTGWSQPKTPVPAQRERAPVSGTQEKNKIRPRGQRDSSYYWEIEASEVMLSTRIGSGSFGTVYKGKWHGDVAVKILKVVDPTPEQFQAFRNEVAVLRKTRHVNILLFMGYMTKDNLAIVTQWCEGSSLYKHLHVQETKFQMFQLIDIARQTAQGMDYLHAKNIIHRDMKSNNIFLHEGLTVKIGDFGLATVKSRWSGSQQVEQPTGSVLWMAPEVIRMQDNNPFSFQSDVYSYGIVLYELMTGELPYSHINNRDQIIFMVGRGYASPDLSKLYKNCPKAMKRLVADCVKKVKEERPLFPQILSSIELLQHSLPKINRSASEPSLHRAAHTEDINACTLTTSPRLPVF
T7 sequence (Q14012 whole entry): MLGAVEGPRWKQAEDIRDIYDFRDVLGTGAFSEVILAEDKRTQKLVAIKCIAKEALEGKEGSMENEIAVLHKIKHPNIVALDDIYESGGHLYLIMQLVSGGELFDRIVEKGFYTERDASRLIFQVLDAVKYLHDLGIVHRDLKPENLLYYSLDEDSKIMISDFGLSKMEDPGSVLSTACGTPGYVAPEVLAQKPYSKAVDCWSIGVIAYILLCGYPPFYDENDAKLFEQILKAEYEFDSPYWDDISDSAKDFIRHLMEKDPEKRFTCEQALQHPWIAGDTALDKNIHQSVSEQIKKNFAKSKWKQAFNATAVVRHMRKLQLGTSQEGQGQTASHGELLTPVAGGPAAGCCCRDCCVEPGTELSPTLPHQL

On to `CC(C)(C)c1ccc(S(=O)(=O)NCc2ccc(C(=O)Nc3cccnc3)cc2)cc1` [Example 38, 4-((4-tert-Butylphenylsulfonamido)methyl)-N-(pyridin-3-yl)benzamide], for which the JAK2 kinase activity at JAK2 is reported as 113. The TrkA kinase activity at TrkA is 124. The molecule further showed an ROCK-I kinase activity at ROCK-I of 74%. The “hexokinase activity in RCC4” value with hexokinase was “inhibited by compound 47 only after three days of treatment”. The molecule also had a PI3K kinase activity in the assay on PI3K of 97. Besides, the IR kinase activity at IR is 121%. For the same molecule, at cKit(D816H), the “cKit(D816H) kinase activity” value was 99. This molecule showed an Axl kinase activity on Axl of 87. Moreover, in the assay with RCC4 and RCC4/VHL cells (DAPI, RCC4 and RCC4/VHL, FIG. 7C), the “nuclear condensation (apoptosis)” value is “no nuclear condensation”. Further, the “propidium iodide or annexin V staining (apoptosis)” value in the assay with RCC4 and RCC4/VHL cells (RCC4, 5 μM, FACS, FIG. 7D) is recorded as “nor an increase in either propidium iodide or annexin V staining”. On CaMKI, this molecule returned a CaMKI kinase activity of 87. Moreover, the CK1γ1 kinase activity at CK1γ1 was found to be 85%. This molecule gave a c-RAF kinase activity at c-RAF of 103.
